The target in the assay is T1, TtAbf62 (Thermothelomyces thermophilus, UniProt G2QJQ6).
T1 construct: gene MYCTH_55982; GH62; 321 residues with signal peptide MRPTRPGIVLLATATSVAG (1-19), replaced by alpha-factor signal (strain alpha-ABF); codon-optimized, secreted by Pichia pastoris X-33 (pPICZalphaA); N-glycosylated, 45-60 kDa (35 kDa deglycosylated); no purification described
Briefly: HPLC of released arabinose. The class given is biochemical. The note with it: 5 mg/mL substrate, 7.7 U/mL secreted enzyme, 50 mM sodium acetate pH 5.0, 60 °C, 1 h.

T1 sequence (G2QJQ6 20-321): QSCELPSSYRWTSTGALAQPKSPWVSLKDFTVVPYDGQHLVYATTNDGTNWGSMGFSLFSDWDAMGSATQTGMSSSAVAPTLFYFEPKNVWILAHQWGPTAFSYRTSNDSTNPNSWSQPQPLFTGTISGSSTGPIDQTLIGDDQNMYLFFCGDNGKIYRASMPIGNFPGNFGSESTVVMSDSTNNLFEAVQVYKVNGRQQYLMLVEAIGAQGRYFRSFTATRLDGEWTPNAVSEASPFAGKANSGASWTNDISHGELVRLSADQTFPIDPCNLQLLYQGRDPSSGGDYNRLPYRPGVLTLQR

Take `OC[C@@H]1O[C@@H](O[C@H]2[C@H](O[C@@H]3CO[C@@H](O[C@@H]4COC(O)[C@H](O)[C@H]4O)[C@H](O)[C@H]3O)OC[C@@H](O)[C@@H]2O)[C@H](O)[C@H]1O` (stereo partly drawn) [A^2XX, 2^3-α-L-arabinofuranosyl-xylotriose]: the “HPLC of released arabinose” value was “able to release arabinose from single-arabinofuranosyl arabinoxylo-oligosaccharides substrates (A^3X, A^2XX, and XA^3XX)”.

As to `OC[C@@H]1O[C@@H](O[C@@H]2[C@@H](O)[C@H](O[C@@H]3COC(O)[C@H](O)[C@H]3O)OC[C@H]2O)[C@H](O)[C@H]1O` (stereo partly drawn) [A^3X, 3^2-α-L-arabinofuranosyl-xylobiose], the “HPLC of released arabinose” value was “able to release arabinose from single-arabinofuranosyl arabinoxylo-oligosaccharides substrates (A^3X, A^2XX, and XA^3XX)”.

The values are drawn from publication PMC10655120, “Highly efficient synergistic activity of an α-L-arabinofuranosidase for degradation of arabinoxylan in barley/wheat” (Frontiers in Microbiology, 2023).
